According to US9458085B2, “Formulations” (priority 2010, dated 2016):
Structures can show the parent of a compound that is named as a salt. Where two headings read alike, the source gives them in different places.

What was measured:
[1] = system: Digitaria Sanguinalis (DIGSA); assay: Glass house adjuvant test with mesotrione, weed kill; format: in vivo; conditions: mesotrione 45 g/ha + adjuvant 0.2% v/v in spray-tank, mean (standard deviation), 3 replicates
[2] = system: Polygonum Convolvulus (POLCO); assay: as above; format: in vivo; conditions: mesotrione 45 g/ha + adjuvant 0.2% v/v in spray-tank, mean (standard deviation), 3 replicates
[3] = system: Brachiaria Decumbens (BRADE); assay: as above; format: in vivo; conditions: mesotrione 45 g/ha + adjuvant 0.2% v/v in spray-tank, mean (standard deviation), 3 replicates
[4] = system: Amaranthus Tuberculatus (AMATU); assay: as above; format: in vivo; conditions: mesotrione 45 g/ha + adjuvant 0.2% v/v in spray-tank, mean (standard deviation), 3 replicates
Experimental: The weed species Polygonum Convolvulus, Digitaria Sanguinalis, Brachiaria Decumbens and Amaranthus Tuberculatus were grown under glass house conditions and sprayed with the herbicide mesotrione at rate of 45 grams of pesticide per hectare. Weeds were treated with the mesotrione in the absence of (E)-but-2-enedioic acid dibutyl ester (as a control) and also with (E)-but-2-enedioic acid dibutyl ester added to the spray-tank at a concentration of 0.2% v/v. After 14 and 21 days the efficacy of the herbicide was assessed based on the percentage of the weeds that had been killed. Three replicates were used in all cases. The performance of the solvent was assessed by averaging the three replicates at each time period and for each weed. The standard deviation for each result is shown in brackets after the average percentage weed kill.

[5] = system: Avena Fatua (AVEFA); assay: Glass house adjuvant test with pinoxaden, weed kill; format: in vivo; conditions: pinoxaden 7.5 g/ha + adjuvant 0.2% by volume in spray-tank, mean (standard deviation), 3 replicates
Experimental: (§1) The weed species Setaria Viridis (SETVI), Lolium Perenne (LOLPE), Avena Fatua (AVEFA) and Alopecurus Myosuroides (ALOMY) were grown under glass house conditions and sprayed with the herbicide pinoxaden at a rate of 7.5 grams of pesticide per hectare. Weeds were treated with pinoxaden in the absence of (E)-but-2-enedioic acid dibutyl ester (as a control) and also with (E)-but-2-enedioic acid dibutyl ester added to the spray-tank at a concentration of 0.2% by volume. After both 14 and 21 days the efficacy of the herbicide was assessed based on the percentage of the weeds that had been killed. Three replicates were used in all cases. The average percentage of weeds killed is quoted in Table 5 for each weed species either with the adjuvant or without (control). Results have been averaged across three replicates. The standard deviation for each result is shown in brackets after the result.

[6] = system: Alopecurus Myosuroides (ALOMY); assay: as above; format: in vivo; conditions: pinoxaden 7.5 g/ha + adjuvant 0.2% by volume in spray-tank, mean (standard deviation), 3 replicates
Experimental: as §1

[7] = system: Setaria Viridis (SETVI); assay: as above; format: in vivo; conditions: pinoxaden 7.5 g/ha + adjuvant 0.2% by volume in spray-tank, mean (standard deviation), 3 replicates
Experimental: as §1

[8] = system: Lolium Perenne (LOLPE); assay: as above; format: in vivo; conditions: pinoxaden 7.5 g/ha + adjuvant 0.2% by volume in spray-tank, mean (standard deviation), 3 replicates
Experimental: as §1

[9] = Water solubility of solvents at 25° C. (saturated solution, chromatographic analysis); format: physicochemical
Experimental: Typically, solvents which have aqueous solubilities of about (or at least) 0.1% w/w [at the relevant temperature] can dissolve appreciably in agrochemical spray tanks under normal dilution conditions [for example, temperatures of from just above freezing to 35° C.]. […] Solvents such as acetophenone are normally formulated with an oil of much lower water solubility. […] Table 2 provides water solubilities for a number of solvents at 25° C. Saturated solutions of each solvent in deionised water were prepared by leaving excess solvent in contact with water for a period of at least two weeks. After this time a sample of the water was analysed chromatographically to determine the concentration of solvent present.

[10] = Solubility of chlorothalonil in solvents at 20° C.; format: physicochemical
[11] = solvent in deionised water, 25° C., contact at least two weeks

With `CCCCOC(=O)/C=C/C(=O)OCCCC` [(E)-But-2-enedioic acid dibutyl ester] the “average percentage weed kill, DIGSA” value ([1]; 14 days after application) was 36.7(2.9) %, the “average percentage weed kill, DIGSA” value ([1]; 21 days after application) was 41.7(7.6) % and the “average percentage weed kill, POLCO” value ([2]; 14 days after application) was 80(10) %. For the same molecule, the “average percentage weed kill, POLCO” value ([2]; 21 days after application) was 80(10) %, the “average percentage weed kill, BRADE” value ([3]; 14 days after application) was 43.3(5.8) % and the “average percentage weed kill, BRADE” value ([3]; 21 days after application) was 40(0) %. The “average percentage weed kill, AMATU” value ([4]; 14 days after application) was 76.7(5.8) %, the “average percentage weed kill, AMATU” value ([4]; 21 days after application) was 94(3.6) % and the “average percentage of weeds killed, AVEFA” value ([5]; 14 days after application) was 20(10) %. For the same molecule, the “average percentage of weeds killed, AVEFA” value ([5]; 21 days after application) was 16.7(5.8) %, the “average percentage of weeds killed, ALOMY” value ([6]; 14 days after application) was 20(17.3) % and the “average percentage of weeds killed, ALOMY” value ([6]; 21 days after application) was 33.3(15.3) %. The “average percentage of weeds killed, SETVI” value ([7]; 14 days after application) was 20(0) %, the “average percentage of weeds killed, SETVI” value ([7]; 21 days after application) was 20(10) % and the “average percentage of weeds killed, LOLPE” value ([8]; 14 days after application) was 13.3(5.8) %. The “average percentage of weeds killed, LOLPE” value ([8]; 21 days after application) was 6.7(5.8) % and the “% water solubility [by weight at 25° C.]” value [9] was 0.04 % by weight.

For `CC(=O)c1ccccc1` [Acetophenone (methyl phenyl ketone), methyl phenyl ketone], the “% water solubility [by weight at 25° C.]” value [9] was 0.9 % by weight.

In the case of `OCc1ccccc1` [Benzyl alcohol, benzene methanol, Benzyl alcohol], the “% water solubility [by weight at 25° C.]” value [9] is reported as 4.4 % by weight.

In the case of `C1CCC2CCCCC2C1` (stereo not drawn) [Decalin, decahydronaphthalene], the “% water solubility [by weight at 25° C.]” value [9, 11] is reported as 0.7 % by weight.

With `CCOC(=O)/C=C/C(=O)OCC` [Diethyl fumarate] the “% water solubility [by weight at 25° C.]” value [9] was 0.8 % by weight.

For `C=C(C)[C@H]1CC=C(C)CC1` [Dipentene, limonene], the “Chlorothalonil solubility in the solvent” value [10] was 0.18 percentage w/w and the “% water solubility [by weight at 25° C.]” value [9, 11] was 0.098 % by weight.

In the case of `CCCCCCCCCCCCc1ccccc1` [Dodecylbenzene, 1-phenyldodecane], the “% water solubility [by weight at 25° C.]” value [9] is reported as 0.000026 % by weight.

In the case of `c1ccc2c(c1)CCCC2` [Tetralin, tetrahydronaphthalene], the “% water solubility [by weight at 25° C.]” value [9, 11] is reported as 0.18 % by weight.

With `CC(=O)OCC(COC(C)=O)OC(C)=O` [Triacetin (glycerol triacetate), glycerol triacetate] the “% water solubility [by weight at 25° C.]” value [9] was 7.7 % by weight.

In the case of “dimethyl heptamide [Genagen ™ 4166 (dimethyl heptamide)]”, the “% water solubility [by weight at 25° C.]” value [9, 11] is reported as 0.7 % by weight.
